Measurements as given in US6864287B1, “Derivatives of dicarboxylic acid having pharmaceutical properties” (Bayer Aktiengesellschaft, priority 1999, dated 2005).
Each block holds one compound with its values, some of them ahead of it.

Key:
arteria saphena = test: Vasorelaxant action in vitro (phenylephrin-contracted artery rings); design: species or system Rabbits; details: Oryctolagus cuniculus; rabbit arteria saphena rings, contraction induced by phenylephrin; read-out: IC50 (concentration reducing the phenylephrin-induced contraction by 50%)
Protocol: Vaso Relaxant Action in Vitro
Rabbits are anaesthetized by intravenous injection of thiopental sodium […] (about 50 mg/kg) and exsanguinated. The arteria saphena is removed and divided into 3 mm wide rings. The rings are individually mounted on in each case one triangular pair of hooks, open at the end, made of 0.3 mm strong special wire (Remanium®). Under a pretension, each ring is transferred into 5 ml organ baths containing a warm, carbogen-aerated Krebs-Henseleit solution at 37° C. having the following composition (mM): NaCl: 119; KCl: 4.8; CaCl2×2H2O: 1; MgSO4×7H2O: 1.4; KH2PO4: 1.2; NaHCO3: 25; glucose: 10; bovine serum albumin: 0.001%. The contractility is detected using Statham UC2 cells, amplified and digitalized by means of A/D converters (DAS-1802 HC, Keithley Instruments Munich), and recorded in parallel on linear recorders. Contractions are induced by addition of phenylephrin.
After several (in general 4) control cycles, the substance to be investigated is added in each further passage in increasing dosage, and the height of the contraction achieved under the influence of the test substance is compared with the height of the contraction achieved in the last preliminary passage. From this, the concentration which is necessary in order to reduce the contraction achieved in the preliminary control by 50% (IC50) is calculated. The standard administration volume is 5 μl. The proportion of DMSO in the bath solution corresponds to 0.1%.

Heme-containing sGC = target: T1, Heme-containing sGC (Rattus norvegicus, UniProt P20595); test: Stimulation of recombinant soluble guanylate cyclase (sGC) in vitro, heme-containing enzyme; assay type: biochemical
T1 construct: made in house; host or cells: baculovirus/Sf9 insect cells
T1 sequence (P20595 1-619): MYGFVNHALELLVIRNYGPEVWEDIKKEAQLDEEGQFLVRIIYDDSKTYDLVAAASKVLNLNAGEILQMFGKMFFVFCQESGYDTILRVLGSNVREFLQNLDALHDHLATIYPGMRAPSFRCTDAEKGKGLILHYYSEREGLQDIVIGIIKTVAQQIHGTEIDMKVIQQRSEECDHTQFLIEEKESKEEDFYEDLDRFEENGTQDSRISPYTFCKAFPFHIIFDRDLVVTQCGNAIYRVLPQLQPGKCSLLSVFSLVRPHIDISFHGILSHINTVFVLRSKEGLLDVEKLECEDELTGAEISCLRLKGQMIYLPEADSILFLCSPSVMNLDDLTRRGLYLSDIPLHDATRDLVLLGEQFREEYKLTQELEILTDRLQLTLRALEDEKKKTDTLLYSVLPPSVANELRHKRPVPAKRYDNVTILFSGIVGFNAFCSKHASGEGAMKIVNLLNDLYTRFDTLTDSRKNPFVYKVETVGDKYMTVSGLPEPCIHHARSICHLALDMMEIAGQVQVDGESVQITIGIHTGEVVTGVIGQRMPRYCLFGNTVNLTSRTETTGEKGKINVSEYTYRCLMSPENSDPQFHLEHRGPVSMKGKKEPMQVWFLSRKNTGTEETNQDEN
T1 sequence (P19686 1-690 partner): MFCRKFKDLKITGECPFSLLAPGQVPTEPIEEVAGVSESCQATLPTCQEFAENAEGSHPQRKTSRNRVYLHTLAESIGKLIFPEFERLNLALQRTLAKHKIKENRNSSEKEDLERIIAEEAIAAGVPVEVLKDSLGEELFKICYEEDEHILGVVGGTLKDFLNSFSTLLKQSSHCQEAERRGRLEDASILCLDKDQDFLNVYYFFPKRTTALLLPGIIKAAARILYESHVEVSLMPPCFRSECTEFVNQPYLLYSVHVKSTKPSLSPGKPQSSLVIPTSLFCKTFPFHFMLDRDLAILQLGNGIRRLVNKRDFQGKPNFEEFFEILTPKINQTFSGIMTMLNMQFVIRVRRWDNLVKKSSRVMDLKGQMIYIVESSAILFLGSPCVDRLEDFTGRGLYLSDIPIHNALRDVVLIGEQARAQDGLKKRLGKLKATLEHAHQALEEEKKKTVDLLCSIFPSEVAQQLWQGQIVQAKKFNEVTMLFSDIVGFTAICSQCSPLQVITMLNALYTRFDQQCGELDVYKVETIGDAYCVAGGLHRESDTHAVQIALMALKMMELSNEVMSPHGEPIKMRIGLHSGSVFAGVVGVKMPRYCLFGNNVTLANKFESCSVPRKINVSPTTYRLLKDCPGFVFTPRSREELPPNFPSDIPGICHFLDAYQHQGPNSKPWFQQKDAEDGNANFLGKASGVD
Protocol: (§1) Stimulation of Recombinant Soluble […] Cyclase (sGC) in Vitro
(§2) The investigation on the stimulation of recombinant soluble guanylate cyclase (sGC) and the compounds according to the invention with and without sodium nitroprusside and with and without the heme-dependent sGC inhibitor 1H-1,2,4-oxadiazole-(4,3a)-quinoxalin-1-one (ODQ) were carried out by the method described in detail in the following literature reference: M. Hoenicka, E. M. Becker, H. Apeler, T. Sirichoke, H. Schroeder. R Gerzer and J.-P. Stasch: Purified soluble guanylyl cyclase expressed in baculovirus/Sf9 system: stimulation by YC-1, nitric oxide, and carbon oxide. J. Mol, Med. 77 (1999): 14-23.
(§3) Activation of sGC by a test substance is stated as n-fold stimulation of basal activity.

Heme-free sGC = target: T2, Heme-free sGC (Rattus norvegicus, UniProt P20595); test: Stimulation of recombinant soluble guanylate cyclase (sGC) in vitro, heme-free enzyme; assay type: biochemical
T2 construct: made in house; host or cells: baculovirus/Sf9 insect cells
T2 sequence (P20595 1-619): T1 sequence (P20595 1-619)
T2 sequence (P19686 1-690 partner): T1 sequence (P19686 1-690 partner)
Protocol: as §1, §2
Heme-free guanylate cyclase was obtained by adding Tween 20 to the sample buffer (final concentration 0.5%).
as §3

SMILES: Cc1ccc(/C=C/C(CCCCC(=O)O)Cc2ccc(C(=O)O)cc2)c(OCc2ccccc2)c1 (centres unmarked) [Example 12]
- IC50 (arteria saphena): 0.112 µM

SMILES: N#Cc1ccc(CC(/C=C/c2ccccc2OCCCCCc2ccccc2)CCCCC(=O)O)cc1 (centres unmarked) [Example 13]
- IC50 (arteria saphena): 2.6 µM

SMILES: O=C(O)CCCCC(/C=C/c1ccccc1OCc1ccccc1Cl)Cc1ccc(C(=O)O)cc1 (centres unmarked) [Example 14]
- IC50 (arteria saphena): 0.0087 µM

SMILES: O=C(O)CCCCC(/C=C/c1ccccc1OCCCOc1ccccc1)Cc1ccc(C(=O)O)cc1 (centres unmarked) [Example 24]
- IC50 (arteria saphena): 6.2 µM

SMILES: CC(C)(C)c1ccc(COc2ccccc2/C=C/C(CCCCC(=O)O)Cc2ccc(C(=O)O)cc2)cc1 (centres unmarked) [Example 34]
- IC50 (arteria saphena): 0.00035 µM

SMILES: CCc1ccc(COc2ccccc2/C=C/C(CCCCC(=O)O)Cc2ccc(C(=O)O)cc2)cc1 (centres unmarked) [Example 35]
- IC50 (arteria saphena): 0.0017 µM

SMILES: O=C(O)CCCCC(CCCc1cccc(OCCCCc2ccccc2)c1)Cc1ccc(C(=O)O)cc1 (centres unmarked) [Example 44, 6-(4Carboxybenzyl)-9-(3-(4-phenylbutoxy)phenyl)nonanoic acid]
- IC50 (arteria saphena): 7.8 µM

SMILES: O=c1onc2cnc3ccccc3n12 [ODQ, 1H-1,2,4-oxadiazole-(4,3a)-quinoxalin-1-one, reference compound]
- Stimulation (n-fold), ODQ alone (Heme-containing sGC; ODQ 10 μM, no Ex. 16 (0 μM)): 1 n-fold
- Stimulation (n-fold), ODQ alone (Heme-free sGC; ODQ 10 μM, no Ex. 16 (0 μM)): 1 n-fold

Continued, values first:

- IC50 (arteria saphena): 0.005 µM
- Stimulation (n-fold), + ODQ (10 μM) (Heme-containing sGC; 0.1 μM Ex. 16): 27 n-fold
- Stimulation (n-fold), + ODQ (10 μM) (Heme-containing sGC; 1.0 μM Ex. 16): 52 n-fold
- Stimulation (n-fold), + ODQ (10 μM) (Heme-containing sGC; 10 μM Ex. 16): 88 n-fold
- Stimulation (n-fold), + SNP (0.1 μM) (Heme-containing sGC; 0.1 μM Ex. 16): 14 n-fold
- Stimulation (n-fold), + SNP (0.1 μM) (Heme-containing sGC; 1.0 μM Ex. 16): 33 n-fold
- Stimulation (n-fold), + SNP (0.1 μM) (Heme-containing sGC; 10 μM Ex. 16): 29 n-fold
- Stimulation (n-fold), Basal (Heme-containing sGC; 0.1 μM Ex. 16): 4 n-fold
- Stimulation (n-fold), Basal (Heme-containing sGC; 1.0 μM Ex. 16): 9 n-fold
- Stimulation (n-fold), Basal (Heme-containing sGC; 10 μM Ex. 16): 19 n-fold
- Stimulation (n-fold), + ODQ (10 μM) (Heme-free sGC; 0.1 μM Ex. 16): 12 n-fold
- Stimulation (n-fold), + ODQ (10 μM) (Heme-free sGC; 1.0 μM Ex. 16): 94 n-fold
- Stimulation (n-fold), + ODQ (10 μM) (Heme-free sGC; 10 μM Ex. 16): 291 n-fold
- Stimulation (n-fold), Basal (Heme-free sGC; 0.1 μM Ex. 16): 11 n-fold
- Stimulation (n-fold), Basal (Heme-free sGC; 1.0 μM Ex. 16): 54 n-fold
- Stimulation (n-fold), Basal (Heme-free sGC; 10 μM Ex. 16): 204 n-fold
SMILES: O=C(O)CCCCC(/C=C/c1ccccc1OCCCCCc1ccccc1)Cc1ccc(C(=O)O)cc1 (centres unmarked) [Example 16]

- IC50 (arteria saphena): 0.026 µM
SMILES: O=C(O)CCCCC(/C=C/c1ccccc1CCc1ccccc1)Cc1ccc(C(=O)O)cc1 (centres unmarked) [Example 23]

- IC50 (arteria saphena): 0.041 µM
SMILES: O=C(O)CCCCC(CCc1ccccc1CCc1ccccc1)Cc1ccc(C(=O)O)cc1 (centres unmarked) [Example 40]

- IC50 (arteria saphena): 0.0028 µM
SMILES: O=C(O)CCCCC(CCc1ccccc1OCCCCCc1ccccc1)Cc1ccc(C(=O)O)cc1 (centres unmarked) [Example 41]

- IC50 (arteria saphena): 0.608 µM
SMILES: O=C(O)CCCCC(/C=C/c1ccccc1OCCCCCc1ccccc1)Cc1ccccc1C(=O)O (centres unmarked) [Example 60]
